Blank lines part the entries; values can stand above or below the molecule they belong to.
How the values were obtained:
CjAto2 = biological target: T1, CjAto2 (Williopsis jadinii, UniProt A0A1E4S9G0); assay: […]-succinate uptake, initial rates in S. cerevisiae IMX1000; type: cell-based; settings: pH 5.0, 30 °C; labelled compound
T1 construct: gene CYBJADRAFT_7539; full ORF in p416GPD, expressed in S. cerevisiae IMX1000; cloned from DSM 2361 DNA

CjAto5 = biological target: T2, CjAto5 (Williopsis jadinii, UniProt A0A1E4RU05); assay: as above; type: cell-based; settings: pH 5.0, 30 °C; labelled compound
T2 construct: gene CYBJADRAFT_178915; full ORF in p416GPD, expressed in S. cerevisiae IMX1000; cloned from DSM 2361 DNA
T2 sequence (A0A1E4RU05 1-272): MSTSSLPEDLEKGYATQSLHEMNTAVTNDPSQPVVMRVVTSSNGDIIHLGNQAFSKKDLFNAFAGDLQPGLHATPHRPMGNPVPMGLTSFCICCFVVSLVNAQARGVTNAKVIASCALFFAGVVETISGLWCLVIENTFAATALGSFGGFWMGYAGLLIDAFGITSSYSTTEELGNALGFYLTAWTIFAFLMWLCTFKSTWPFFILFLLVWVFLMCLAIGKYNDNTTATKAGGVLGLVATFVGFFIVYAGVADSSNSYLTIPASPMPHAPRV

CjSlc16 = biological target: T3, CjSlc16 (Williopsis jadinii, UniProt A0A1E4RTM6); settings: pH 6.0, 30 °C; labelled compound
T3 construct: gene CYBJADRAFT_170140
T3 sequence (A0A1E4RTM6 1-470): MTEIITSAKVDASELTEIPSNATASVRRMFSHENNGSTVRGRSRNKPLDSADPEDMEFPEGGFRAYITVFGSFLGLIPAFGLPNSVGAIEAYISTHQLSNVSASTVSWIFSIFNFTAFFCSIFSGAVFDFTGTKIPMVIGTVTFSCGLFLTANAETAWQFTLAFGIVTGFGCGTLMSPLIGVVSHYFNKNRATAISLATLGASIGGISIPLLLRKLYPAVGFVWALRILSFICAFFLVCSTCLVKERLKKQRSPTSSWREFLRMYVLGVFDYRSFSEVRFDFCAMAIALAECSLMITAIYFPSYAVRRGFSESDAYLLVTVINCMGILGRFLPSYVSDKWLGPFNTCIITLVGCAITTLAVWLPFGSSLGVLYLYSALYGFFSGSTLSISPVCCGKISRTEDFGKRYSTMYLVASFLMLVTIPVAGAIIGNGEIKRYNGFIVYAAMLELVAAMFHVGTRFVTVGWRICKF

CjSlc13-2 = biological target: T4, CjSlc13-2 (Williopsis jadinii, UniProt A0A1E4S914); settings: pH 6.0, 30 °C; labelled compound
T4 construct: gene CYBJADRAFT_165372
T4 sequence (A0A1E4S914 1-821): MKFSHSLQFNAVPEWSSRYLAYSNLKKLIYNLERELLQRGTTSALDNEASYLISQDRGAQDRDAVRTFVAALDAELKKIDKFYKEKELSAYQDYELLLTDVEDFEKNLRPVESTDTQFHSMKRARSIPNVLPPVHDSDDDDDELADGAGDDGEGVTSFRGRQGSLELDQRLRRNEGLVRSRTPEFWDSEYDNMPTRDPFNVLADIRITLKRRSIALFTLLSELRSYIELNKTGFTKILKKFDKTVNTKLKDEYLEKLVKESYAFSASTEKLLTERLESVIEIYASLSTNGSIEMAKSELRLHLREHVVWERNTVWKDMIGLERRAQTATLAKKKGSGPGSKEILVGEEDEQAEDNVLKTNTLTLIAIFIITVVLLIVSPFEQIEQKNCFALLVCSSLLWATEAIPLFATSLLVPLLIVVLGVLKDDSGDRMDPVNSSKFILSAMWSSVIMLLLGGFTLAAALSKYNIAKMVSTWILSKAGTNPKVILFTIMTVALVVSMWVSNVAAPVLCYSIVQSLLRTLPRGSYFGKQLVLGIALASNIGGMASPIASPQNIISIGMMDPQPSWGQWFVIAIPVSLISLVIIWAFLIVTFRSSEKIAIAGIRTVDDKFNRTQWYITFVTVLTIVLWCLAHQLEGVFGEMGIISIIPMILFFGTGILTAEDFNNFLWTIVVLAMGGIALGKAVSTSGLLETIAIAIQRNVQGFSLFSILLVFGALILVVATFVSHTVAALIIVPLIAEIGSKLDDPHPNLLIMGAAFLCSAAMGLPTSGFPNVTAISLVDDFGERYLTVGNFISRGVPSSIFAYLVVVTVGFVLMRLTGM

CjSlc13-1 = biological target: T5, CjSlc13-1 (Williopsis jadinii, UniProt A0A1E4RYH4); settings: pH 6.0, 30 °C; labelled compound
T5 construct: gene CYBJADRAFT_194887
T5 sequence (A0A1E4RYH4 1-843): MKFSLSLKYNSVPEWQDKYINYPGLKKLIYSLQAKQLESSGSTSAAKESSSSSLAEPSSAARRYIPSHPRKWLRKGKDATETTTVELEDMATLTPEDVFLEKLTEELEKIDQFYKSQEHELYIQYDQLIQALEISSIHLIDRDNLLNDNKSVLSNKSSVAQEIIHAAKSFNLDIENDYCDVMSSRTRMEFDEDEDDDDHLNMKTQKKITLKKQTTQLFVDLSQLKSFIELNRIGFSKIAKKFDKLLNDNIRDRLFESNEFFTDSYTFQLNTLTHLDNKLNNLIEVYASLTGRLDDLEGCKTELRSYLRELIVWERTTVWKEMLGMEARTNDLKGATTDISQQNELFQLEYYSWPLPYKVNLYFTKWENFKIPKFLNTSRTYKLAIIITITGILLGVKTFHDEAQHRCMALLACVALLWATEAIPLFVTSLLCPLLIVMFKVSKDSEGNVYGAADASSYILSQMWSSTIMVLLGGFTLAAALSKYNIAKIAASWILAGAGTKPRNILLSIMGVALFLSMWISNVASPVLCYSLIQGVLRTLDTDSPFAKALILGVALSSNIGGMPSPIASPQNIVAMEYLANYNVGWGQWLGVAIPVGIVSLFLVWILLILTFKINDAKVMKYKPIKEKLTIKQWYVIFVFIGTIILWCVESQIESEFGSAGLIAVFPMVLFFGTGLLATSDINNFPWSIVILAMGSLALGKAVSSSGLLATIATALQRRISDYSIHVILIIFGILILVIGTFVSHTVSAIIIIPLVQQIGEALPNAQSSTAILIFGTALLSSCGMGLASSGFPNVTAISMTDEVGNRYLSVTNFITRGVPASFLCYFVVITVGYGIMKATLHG

[1] = substrate: C[C@H](O)C(=O)O; assay: cells, lysate or membranes; settings: pH 5.0, 30 °C, labelled compound, pH 5.0
[2] = substrate: O=C(O)CC(O)(CC(=O)O)C(=O)O; assay: cells, lysate or membranes; settings: pH 5.5, 30 °C, labelled compound, pH 5.5

Km (CjAto2): 3.38 ± 0.82 mM
Km (CjAto5): 0.45 ± 0.09 mM
Molecule: O=C(O)CCC(=O)O [succinic acid]

Molecule: CC(=O)O [acetic acid]
uptake (CjSlc16): All transformants presented activity for acetate uptake (Figure 3C)
uptake (CjSlc13-2): All transformants presented activity for acetate uptake (Figure 3C)
uptake (CjSlc13-1): All transformants presented activity for acetate uptake (Figure 3C)

B1: CjAto2 (Williopsis jadinii) (protein)
chain: MSSINEDLEKISSLGELNYDSHPISQVRTAGPNDEFVMLGRMKVRKSELWSAFGGDLQPGVHAQPQRKFANPVPIGLCGFALTTLVLSMANARAMGIRTPNVAVAPAFFYGGFAQILAGMWEIALENTFGSVVLTSYGCFWLSWAAIEIDWFGIKAAYDDPIELENAIGFFLLGWVIFTFLILLCTMKSTVAFFSMFFLLEITFILLTVASFTRHVGCQRAGGVFGVITGFLAWYNAYAGIATKEISYFVPKPWPLPGASHL
Km [1]: 4.33 ± 0.70 mM

B2: CjJen6 (Williopsis jadinii) (protein)
chain: MGFKTYSMSECAQYTRERFTTLLPSREQWEVEKSHMNPFPGLRAMTWRNWQFYIIGMLAWTWDALDFFAMSLNMSNISEDLNRSVKDVSWGITLVLMFRSVGAIFFGYFGDRYGRKWPLIVNLICLIVIQIGTGFVKTYSEFLGVRALFGIFMGSMYGLASATALEGLPTDARSFLSGVFQQGYALGYLLAVIFQRAITDTTEKGWRSLFWFSAGPPVLFILWRAFLPETEEFLQQKLHMSNRKSTFRRDAWNTFKQQWVKMGYLVLLMAGMNFMSHGSQDLYPTMLTKQLGFSSDRSTVTNSVANLGAMAGGMVIGHFSGFIGRRAAIMVCCICGGAMIYPWAFVTGNGINAGVFFLQFFVQGAWGVIPIHLSELSPPEFRAFVVGVSYQLGNLVSSASSTIETTIGERFPLYTETGERREGVYDYAKVMAIFVGAVFAYVFLISFIGPENRHANINFVLSDEEQREMVSQGKIITHKGSDDENLDEEKAVAFHTENVVSEVK
Km [2]: 21.44 ± 7.17 mM

B3: CjSlc5 (Williopsis jadinii) (protein)
chain: MFAETEDGPDYRGVTTFGAAVLIAKGQLGLGVLGIPSTFDVLGFVPGLISLVGLSILVTWTGVVIGQFRLAHPKVYCIDDATEIMFGKAARELVGWGYWLFYTMCYGAALITVSIALNTFSDHGLCTMAFIGIATGATTILTLFTRTMKVLSWLGFIAISCIFFAIWVVAIACLTQSTPAAAESLVDPAKKVIQVVATHSSYKKIAAAVSVQLLSLAGGASFFTIHAEMKDQTKYTKSLLMGQGFIVFNYIAIACIMYAKVGQYIASPALGSAGRTFQIISYGIAFPGLMFSCFFLAHLAAKYALVRILRGTEHLQKNSKTHWITWTAMVAIVIAVGFVIAGAIPFFGDLLGLIGALLGSIFALIAPGFMCLYDMNYKFEGKVPRGYTWIYKNNGSWTKNFWTKLETLLSFFCIASGIYILFTGVYGSIASIADLYSSGAVSGAFSCADNS
Km [2]: 17.24 ± 4.73 mM
